According to patent US20240294551A1 (AMGEN INC., priority 2022, published 2024):

Key:
[1] = biological target: His-tagged KRAS G12D protein (Homo sapiens (Human), UniProt P01116, G12D); assay: KRAS G12D TR-FRET Assay; assay type: binding; settings: read-out: KRAS G12D Binding IC50
In short: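 Each incubation ran at room temperature: enzyme with compound for 30 minutes, peptide for one hour, and detection reagents (0.4 nM europium anti-6×His, 5 nM streptavidin-d2) for one hour more. Protein and peptide stocks were each diluted to 20 nM before addition.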

SW620 cells = assay: SW620 CTG Assay (CellTiter-Glo cell viability); assay type: cell-based, human; settings: Homo sapiens, SW-620; SW620, 72 h; third value of the cell; read-out: G12D/C/V Cell Proliferation CTG (72 h) SW620
Protocol: AsPC-1 and SW620 CTG Assay Protocols
AsPC-1 (human pancreatic adenocarcinoma; ATCC CRL-1682) or SW620 (human colon adenocarcinoma; ATCC CCL-227) cells were cultured in RPMI 1640 medium containing 10% fetal bovine serum and 1× penicillin/streptomycin/L-glutamine. Cells were seeded in 384-well plates at a density of 3.33E+04 cells/mL and incubated at 37° C., 5% CO2, overnight. Serially-diluted compound or DMSO was added to the cells, and plates were incubated at 37° C., 5% CO2 for 72 h. Cell viability was measured using a CellTiter-Glo® Luminescent Cell Viability Assay kit (Promega) according to the manufacturer's protocol. The luminescence signal of treated samples was normalized to DMSO control, and data were analyzed using a 4-parameter logistic model to calculate IC50 values.

[2] = system: Phosphorylation of ERK1/2 in AsPC-1 cells; assay: Phospho-ERK1/2 MSD Assay; assay type: cell-based, human; settings: Homo sapiens, ASPC1, 2 h, read-out: 2 h p-ERK (AsPC-1 cells), IC50
In short: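 Read-out: MSD electrochemiluminescent detection of phosphorylated ERK1/2 in whole-cell lysates, fitted to a 4-parameter logistic curve for IC50. Prior to lysis, AsPC-1 cells (25,000 per well) received a 2 h compound dose-response at 37 °C.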

AsPC-1 cells = assay: AsPC-1 CTG Assay (CellTiter-Glo cell viability); assay type: cell-based, human; settings: Homo sapiens, ASPC1, 72 h, AsPC-1, 72 h; first value of the cell; read-out: G12D/C/V Cell Proliferation CTG (72 h) AsPC-1
In short: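 IC50 values derive from 4-parameter logistic fits of CellTiter-Glo luminescence, expressed relative to DMSO. Compound dilution series were applied to overnight-seeded AsPC-1 or SW620 cells (RPMI 1640, 10% FBS) for 72 h at 37 °C, 5% CO2.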

MIA PaCa-2 cells = assay: MIA PaCa-2 CTG Assay (CellTiter-Glo cell viability); assay type: cell-based, human; settings: Homo sapiens; Mia PaCa-2, 72 h; second value of the cell; read-out: G12D/C/V Cell Proliferation CTG (72 h) Mia PaCa-2
In short: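 IC50 values come from a 4-parameter logistic fit of CellTiter-Glo luminescence, normalized to DMSO control, after 72 h compound exposure at 37° C, 5% CO2. Cells grew in RPMI 1640 plus 10% FBS and were seeded at 1.67E+04 cells/mL one night before dosing.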

[3] = biological target: GDP-bound KRAS protein (aa 1-169), containing both G12D and C118A amino acid substitutions (Homo sapiens (Human), UniProt P01116, C118A/G12D); assay: KRAS G12D Coupled Nucleotide Exchange Assay; assay type: biochemical; settings: read-out: KRAS G12D Coupled Exchange IC50
GDP-bound KRAS protein (aa 1-169), containing both G12D and C118A amino acid substitutions, sequence (P01116 other isoform, or with tags, fused parts or gaps G12D/C118A): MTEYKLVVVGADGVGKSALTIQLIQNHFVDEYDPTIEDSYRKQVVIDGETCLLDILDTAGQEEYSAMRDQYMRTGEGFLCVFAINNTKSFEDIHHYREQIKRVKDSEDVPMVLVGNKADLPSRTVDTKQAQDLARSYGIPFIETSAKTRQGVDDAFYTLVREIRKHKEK

His-tagged KRAS G12D protein, sequence (P01116 other isoform, or with tags, fused parts or gaps G12D): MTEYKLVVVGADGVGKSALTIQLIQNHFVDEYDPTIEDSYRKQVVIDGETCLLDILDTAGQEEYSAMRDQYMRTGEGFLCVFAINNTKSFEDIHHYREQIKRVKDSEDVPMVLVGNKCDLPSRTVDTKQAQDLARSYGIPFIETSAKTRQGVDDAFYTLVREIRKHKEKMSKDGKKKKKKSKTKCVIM

IC50 [1]	IC50 (SW620 cells)	IC50 [2]	IC50 (AsPC-1 cells)	IC50 [3]	Compound	IC50 (MIA PaCa-2 cells)
6 nM	32 nM	12 nM	82 nM	3 nM	Cc1c2ncc3c(nc(OC[C@@]45CCCN4C[C@H](F)C5)nc13)N1CCC[C@](C)(C1)NC(=O)CCCc1c(F)ccc3cc(O)cc-2c13 [Example 18, (15R)-22-Fluoro-8-(((2R,7aS)-2-fluorotetrahydro-1H-pyrrolo[1,2-a]pyrrol-7a(5H)-yl)methoxy)-27-hydroxy-15,31-dimethyl-3,7,9,11,16-pentaazahexacyclo[19.7.1.1˜2,6˜.1˜11,15˜.0˜5,10˜.0˜25,29˜]hentriaconta-1(28),2(31),3,5,7,9,21,23,25(29),26-decaen-17-one]	29 nM
3 nM	10 nM	4 nM	80 nM	2 nM	Cc1cc2[nH]ncc2c2c1[C@H]1C[C@H]1COC(=O)O[C@@H]1CCCN(C1)c1nc(OC[C@@]34CCCN3C[C@H](F)C4)nc3c(F)c-2ncc13 [Example 110]	20 nM
3 nM	27.4 nM	10 nM	60 nM	1 nM	O=C1OCCCc2c(Cl)cc3[nH]ncc3c2-c2ncc3c(nc(OC[C@@]45CCCN4C[C@H](F)C5)nc3c2F)N2CCC[C@H](C2)O1 [Example 115]	60 nM
2 nM	20.2 nM	6 nM	120 nM	1 nM	Fc1c2ncc3c(nc(OC[C@@]45CCCN4C[C@H](F)C5)nc13)N1CCCCC(COCCCCc3c(Cl)cc4[nH]ncc4c3-2)C1 (stereo partly drawn) [Example 141]	20 nM
–	50 nM	6 nM	67 nM	–	CN(C)CC1(COc2nc3c4cnc(c(F)c4n2)-c2c(c(Cl)cc4[nH]ncc24)CCCOC(=O)O[C@@H]2COCCN3C2)CC1 [Example 195, (26S)-18-chloro-4-((1-((dimethylamino)methyl)cyclopropyl)methoxy)-32-fluoro-23,25,28-trioxa-1,3,5,9,14,15-hexaazahexacyclo[24.4.1.1~6,10~.0~2,7~.0~11,19~.0~12,16~]dotriaconta-2,4,6,8,10(32),11,13,16,18-nonaen-24-one]	31 nM
4 nM	58 nM	14.7 nM	196 nM	2 nM	CN1CCC[C@H]1COc1nc2c3cnc(c(F)c3n1)-c1c(c(Cl)cc3[nH]ncc13)CCCOC(=O)O[C@@H]1COCCN2C1 [Example 207, (26S)-18-chloro-32-fluoro-4-(((2S)-1-methyl-2-pyrrolidinyl)methoxy)-23,25,28-trioxa-1,3,5,9,14,15-hexaazahexacyclo[24.4.1.1~6,10~.0~2,7~.0~11,19~.0~12,16~]dotriaconta-2,4,6,8,10(32),11,13,16,18-nonaen-24-one]	–
4 nM	75 nM	7.1 nM	209 nM	1 nM	O=C1OCCc2c(Cl)cc3[nH]ncc3c2-c2ncc3c(nc(OC[C@@]45CCCN4C[C@H](F)C5)nc3c2F)N2CCC[C@@H](CO1)C2 [Example 221]	–
4 nM	24 nM	8.4 nM	13 nM	2 nM	C[C@@]12CCCN(C1)c1nc(OC[C@@]34CCCN3C[C@H](F)C4)nc3c(F)c(ncc13)-c1c(c(Cl)cc3[nH]ncc13)CCCOC(=O)O2 [Example 327, (17R)-9-chloro-30-fluoro-24-(((2R,7aS)-2-fluorotetrahydro-1H-pyrrolo[1,2-a]pyrrol-7a(5H)-yl)methoxy)-17-methyl-14,16-dioxa-5,6,21,23,25,29-hexaazahexacyclo[24.3.1.1~17,21~.0~2,10~.0~3,7~.0~22,27~]hentriaconta-1(30),2,4,7,9,22,24,26,28-nonaen-15-one]	–
3 nM	49 nM	12 nM	31 nM	3 nM	O=C1OCCCc2c(Cl)cc3[nH]ncc3c2-c2ncc3c(nc(OC[C@@]45CCCN4C[C@H](F)C5)nc3c2F)N2CCC[C@](CF)(C2)O1 [Example 336, (17R)-9-chloro-30-fluoro-17-(fluoromethyl)-24-(((2R,7aS)-2-fluorotetrahydro-1H-pyrrolo[1,2-a]pyrrol-7a(5H)-yl)methoxy)-14,16-dioxa-5,6,21,23,25,29-hexaazahexacyclo[24.3.1.1~17,21~.0~2,10~.0~3,7~.0~22,27~]hentriaconta-1(30),2,4,7,9,22,24,26,28-nonaen-15-one]	–

Compound	IC50 [1]	IC50 (SW620 cells)	IC50 [2]	IC50 (AsPC-1 cells)	IC50 [3]	IC50 (MIA PaCa-2 cells)
C[C@@]12CCCN(C1)c1nc(OC[C@@]34CCCN3C[C@H](F)C4)nc3c(F)c(ncc13)-c1cc(O)cc3ccc(F)c(c13)CCCC(=O)N2 [Example 4, (15R)-22,31-Difluoro-8-(((2R,7aS)-2-fluorotetrahydro-1H-pyrrolo[1,2-a]pyrrol-7a(5H)-yl)methoxy)-27-hydroxy-15-methyl-3,7,9,11,16-pentaazahexacyclo[19.7.1.1˜2,6˜.1˜11,15˜.0˜5,10˜.0˜25,29˜]hentriaconta-1(28),2(31),3,5,7,9,21,23,25(29),26-decaen-17-one bis(2,2,2-trifluoroacetate)]	4 nM	7 nM	3 nM	14 nM	2 nM	5 nM
Cc1cc2[nH]ncc2c2c1CCCCC(=O)O[C@@H]1CCCN(C1)c1nc(OC[C@@]34CCCN3C[C@H](F)C4)nc3c(F)c-2ncc13 [Example 31, (17R)-30-Fluoro-24-(((2R,7aS)-2-fluorotetrahydro-1H-pyrrolo[1,2-a]pyrrol-7a(5H)-yl)methoxy)-9-methyl-16-oxa-5,6,21,23,25,29-hexaazahexacyclo[24.3.1.1˜17,21.0˜2,10˜.0˜3,7˜.0˜22,27˜]hentriaconta-1(30),2,4,7,9,22,24,26,28-nonaen-15-one bis(2,2,2-trifluoroacetate)]	–	133 nM	33 nM	–	–	170 nM
O=C1OC[C@@H]2C[C@@H]2c2c(Cl)cc3[nH]ncc3c2-c2ncc3c(nc(OC[C@@]45CCCN4C[C@H](F)C5)nc3c2F)N2CCC[C@H](C2)O1 [Example 45, (11S,13R,18R)-9-Chloro-31-fluoro-25-(((2R,7aS)-2-fluorotetrahydro-1H-pyrrolo[1,2-a]pyrrol-7a(5H)-yl)methoxy)-15,17-dioxa-5,6,22,24,26,30-hexaazaheptacyclo[25.3.1.1˜18,22˜.0˜2,10˜.0˜3,7˜.0˜11,13˜.0˜23,28˜]dotriaconta-1(31),2,4,7,9,23,25,27,29-nonaen-16-one bis(2,2,2-trifluoroacetate)]	2 nM	10 nM	1 nM	50 nM	1 nM	10 nM
O=C1CCCCc2c(Cl)cc3[nH]ncc3c2-c2ncc3c(nc(OC[C@@]45CCCN4C[C@H](F)C5)nc3c2F)N2CCCC[C@H](C2)N1 [Example 65, (26R)-18-Chloro-32-fluoro-4-(((2R,7aS)-2-fluorotetrahydro-1H-pyrrolo[1,2-a]pyrrol-7a(5H)-yl)methoxy)-1,3,5,9,14,15,25-heptaazahexacyclo[24.4.1.1˜6,10˜.0˜2,7˜.0˜11,19˜.0˜12,16˜]dotriaconta-2,4,6,8,10(32),11,13,16,18-nonaen-24-one bis(2,2,2-trifluoroacetate)]	6 nM	52 nM	24 nM	320 nM	2 nM	160 nM
Cc1cc2[nH]ncc2c2c1CCCCOC[C@@H]1CCCN(C1)c1nc(OC[C@@]34CCCN3C[C@H](F)C4)nc3c(F)c-2ncc13 [Example 129, (17R)-30-Fluoro-24-(((2R,7aS)-2-fluorotetrahydro-1H-pyrrolo[1,2-a]pyrrol-7a(5H)-yl)methoxy)-9-methyl-15-oxa-5,6,21,23,25,29-hexaazahexacyclo[24.3.1.1˜17,21˜.0˜2,10˜.0˜3,7˜.0˜22,27˜]hentriaconta-1(30),2,4,7,9,22,24,26,28-nonaene bis(2,2,2-trifluoroacetate)]	4 nM	67.4 nM	20 nM	170 nM	2 nM	90 nM
